From paper PMC6197744, “Triazolo[4,5-d]pyrimidines as Validated General Control Nonderepressible 2 (GCN2) Protein Kinase Inhibitors Reduce Growth of Leukemia Cells” (Computational and Structural Biotechnology Journal, 2018)

Tests used:
[1] = molecular target: T1, human GCN2 (Homo sapiens, UniProt Q9P2K8); test: radiometric HotSpot kinase assay; type: biochemical; settings: ATP at the ATP Km of GCN2; means of two independent experiments
T1 construct: purchased Reaction Biology Corporation (Malvern, PA)
Description: Compounds 1–9 were screened in a radiometric […] kinase assay against human GCN2 and other kinases involved in the UPR and ISR pathways (Table 1). […] The most soluble of the potent tool compounds (1 and 2) were selected for in vitro cell-based assays where the phosphorylation of eIF2α (p-eIF2α) was used as a readout for GCN2 inhibition.
In vitro compound profiling for recombinant GCN2, PERK, HRI, PKR, or IRE1 kinases were performed at Reaction Biology Corporation (Malvern, PA) using the HotSpot kinase assay. Briefly, all compounds provided for testing were dissolved in 10 mM DMSO stock solutions. Serial dilutions were conducted by epMotion 5070 in DMSO. Specific kinase/substrate mixtures and required cofactors were prepared in reaction buffer (20 mM Hepes (pH 7.5), 10 mM MgCl2, 1 mM EGTA, 0.02% Brij35, 0.02 mg/ml BSA, 0.1 mM Na3VO4, 2 mM DTT, 1% DMSO). Compounds were added to the kinase reaction mixture by Acoustic technology (Echo550; nanoliter range) and incubated for 20 min at room temperature. The kinase reaction was initiated by adding ^33P ATP to a final concentration of 10 μM for single point kinase activity reading or to the ATP Km of GCN2 for IC50 readings. The reaction was incubated or 2 h at room temperature and kinase activity was detected by filter-binding method. IC50 values and curves were generated with GraphPad Prism 7 (GraphPad software).

[2] = molecular target: T2, PKG1/PRKG1 (Homo sapiens, UniProt Q13976); test: Broad kinase panel screen (split-luciferase); type: binding; settings: PKG1/PRKG1, 0.5 uM
T2 construct: purchased Luceome Biotechnologies
T2 sequence (Q13976 whole entry): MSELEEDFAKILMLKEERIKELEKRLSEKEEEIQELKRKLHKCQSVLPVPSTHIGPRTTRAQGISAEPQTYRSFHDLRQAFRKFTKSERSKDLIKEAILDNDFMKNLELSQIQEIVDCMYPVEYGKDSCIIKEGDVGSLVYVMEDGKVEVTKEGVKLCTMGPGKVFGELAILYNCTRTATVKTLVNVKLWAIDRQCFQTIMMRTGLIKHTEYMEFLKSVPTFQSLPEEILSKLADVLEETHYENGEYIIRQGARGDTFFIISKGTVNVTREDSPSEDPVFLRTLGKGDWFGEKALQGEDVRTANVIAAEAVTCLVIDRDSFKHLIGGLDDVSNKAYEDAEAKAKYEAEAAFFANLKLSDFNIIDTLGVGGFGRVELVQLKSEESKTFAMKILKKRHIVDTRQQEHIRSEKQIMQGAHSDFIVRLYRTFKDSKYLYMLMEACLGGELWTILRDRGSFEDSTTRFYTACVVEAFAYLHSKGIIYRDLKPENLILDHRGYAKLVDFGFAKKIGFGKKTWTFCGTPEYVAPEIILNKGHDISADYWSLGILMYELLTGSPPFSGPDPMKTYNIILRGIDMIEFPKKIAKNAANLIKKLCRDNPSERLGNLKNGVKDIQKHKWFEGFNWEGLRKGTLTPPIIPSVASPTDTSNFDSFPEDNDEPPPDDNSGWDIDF
Description: (§1) Compound 2 was screened against a standard panel of 50 protein kinases by Luceome Biotechnologies (Tucson, AZ). In brief, Compound 2 was dissolved and diluted in DMSO to a concentration of 12.5 μM from a 10 mM stock solution. As a control, compound 2 was evaluated for false positive against split-luciferase. For kinase assays, each C-terminal half of firefly luciferase linked kinase (Cfluc-Kinase) was translated along with the coiled coil Fos attached to the N-terminal fragment (Nfluc) (Fos-Nfluc) using rabbit reticulocyte lysate at 30 °C for 90 min. 24 µL aliquot of this lysate containing 1 µL of either DMSO or Compound 2 (at a final concentration 0.5 μM) was incubated for 30 minutes at room temperature followed by 1 hour incubation in the presence of a kinase specific probe. Finally, 80 µL of luciferin assay reagent was added and luminescence was immediately measured on a luminometer. Compound 2 was screened in duplicate against each kinase.
(§2) The % Inhibition and % Activity Remaining was calculated using the following equations: […]

[3] = molecular target: T3, PDK1/PDPK1 (Homo sapiens, UniProt O15530); test: Broad kinase panel screen (split-luciferase); type: binding; settings: PDK1/PDPK1, 0.5 uM
T3 construct: purchased Luceome Biotechnologies
T3 sequence (O15530 whole entry): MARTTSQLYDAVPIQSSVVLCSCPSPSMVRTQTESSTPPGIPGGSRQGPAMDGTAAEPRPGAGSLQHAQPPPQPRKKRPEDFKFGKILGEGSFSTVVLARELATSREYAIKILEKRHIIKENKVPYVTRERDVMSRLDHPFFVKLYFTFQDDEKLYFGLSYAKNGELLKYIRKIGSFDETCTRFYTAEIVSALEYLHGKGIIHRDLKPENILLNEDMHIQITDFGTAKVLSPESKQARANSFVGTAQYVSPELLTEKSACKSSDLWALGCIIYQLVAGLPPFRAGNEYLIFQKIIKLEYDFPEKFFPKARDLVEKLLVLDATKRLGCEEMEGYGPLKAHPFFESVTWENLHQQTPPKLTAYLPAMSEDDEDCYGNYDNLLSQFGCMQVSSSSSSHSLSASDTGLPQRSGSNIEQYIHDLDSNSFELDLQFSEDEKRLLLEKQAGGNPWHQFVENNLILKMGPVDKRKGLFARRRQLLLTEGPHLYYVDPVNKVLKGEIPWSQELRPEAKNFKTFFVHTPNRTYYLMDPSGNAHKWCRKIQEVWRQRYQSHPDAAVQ
Description: as §1, §2

[4] = molecular target: T4, MARK1 (Homo sapiens, UniProt Q9P0L2); test: Broad kinase panel screen (split-luciferase); type: binding; settings: MARK1, 0.5 uM
T4 construct: purchased Luceome Biotechnologies
Description: as §1, §2

[5] = molecular target: T5, SRC (Homo sapiens, UniProt P12931); test: Broad kinase panel screen (split-luciferase); type: binding
T5 construct: purchased Luceome Biotechnologies
Description: as §1, §2

[6] = molecular target: T6, RSK2/RPS6KA3 (Homo sapiens, UniProt P51812); test: Broad kinase panel screen (split-luciferase); type: binding; settings: RSK2/RPS6KA3, 0.5 uM
T6 construct: purchased Luceome Biotechnologies
T6 sequence (P51812 whole entry): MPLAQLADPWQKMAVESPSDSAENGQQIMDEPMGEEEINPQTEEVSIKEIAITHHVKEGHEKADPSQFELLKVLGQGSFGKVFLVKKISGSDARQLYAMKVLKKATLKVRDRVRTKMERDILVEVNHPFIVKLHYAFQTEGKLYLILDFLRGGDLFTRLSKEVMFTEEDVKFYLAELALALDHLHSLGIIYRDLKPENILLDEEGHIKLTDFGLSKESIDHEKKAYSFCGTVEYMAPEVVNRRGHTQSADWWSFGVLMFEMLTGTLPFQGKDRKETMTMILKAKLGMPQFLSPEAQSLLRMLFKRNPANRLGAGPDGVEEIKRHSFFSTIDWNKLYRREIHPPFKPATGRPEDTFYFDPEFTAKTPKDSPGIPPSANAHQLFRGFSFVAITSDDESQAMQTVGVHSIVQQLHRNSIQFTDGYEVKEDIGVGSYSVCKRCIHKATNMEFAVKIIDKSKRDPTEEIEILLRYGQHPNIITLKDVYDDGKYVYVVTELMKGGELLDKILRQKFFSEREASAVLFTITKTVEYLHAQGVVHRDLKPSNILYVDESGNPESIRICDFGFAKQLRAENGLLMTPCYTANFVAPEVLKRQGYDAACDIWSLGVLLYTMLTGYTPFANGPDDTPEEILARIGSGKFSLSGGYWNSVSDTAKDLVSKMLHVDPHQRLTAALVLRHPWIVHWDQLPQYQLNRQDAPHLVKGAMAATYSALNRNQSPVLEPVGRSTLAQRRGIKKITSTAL
Description: as §1, §2

[7] = molecular target: T7, YANK2 (Homo sapiens, UniProt Q9NY57); test: Broad kinase panel screen (split-luciferase); type: binding; settings: YANK2, 0.5 uM
T7 construct: purchased Luceome Biotechnologies
Description: as §1, §2

[8] = molecular target: T8, ACVR2A/ACVR2 (Homo sapiens, UniProt P27037); test: Broad kinase panel screen (split-luciferase); type: binding; settings: ACVR2A/ACVR2, 0.5 uM
T8 construct: purchased Luceome Biotechnologies
T8 sequence (P27037 20-513): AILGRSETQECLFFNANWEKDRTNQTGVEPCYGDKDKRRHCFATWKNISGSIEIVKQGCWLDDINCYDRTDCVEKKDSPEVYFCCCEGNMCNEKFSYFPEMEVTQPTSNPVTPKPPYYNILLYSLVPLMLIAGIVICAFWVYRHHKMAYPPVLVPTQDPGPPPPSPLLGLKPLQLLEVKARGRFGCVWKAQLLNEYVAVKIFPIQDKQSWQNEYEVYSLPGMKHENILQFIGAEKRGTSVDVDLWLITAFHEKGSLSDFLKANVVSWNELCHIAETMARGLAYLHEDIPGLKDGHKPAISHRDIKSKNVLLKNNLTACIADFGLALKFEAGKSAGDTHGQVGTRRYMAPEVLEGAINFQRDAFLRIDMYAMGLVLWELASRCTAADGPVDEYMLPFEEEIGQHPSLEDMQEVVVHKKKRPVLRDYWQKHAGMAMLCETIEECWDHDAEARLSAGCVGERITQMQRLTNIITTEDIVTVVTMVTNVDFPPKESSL
Description: as §1, §2

[9] = molecular target: T9, DDR1 (Homo sapiens, UniProt Q08345); test: Broad kinase panel screen (split-luciferase); type: binding; settings: DDR1, 0.5 uM
T9 construct: purchased Luceome Biotechnologies
Description: as §1, §2

[10] = molecular target: T10, TNK1 (Homo sapiens, UniProt Q13470); test: Broad kinase panel screen (split-luciferase); type: binding; settings: TNK1, 0.5 uM
T10 construct: purchased Luceome Biotechnologies
T10 sequence (Q13470 whole entry): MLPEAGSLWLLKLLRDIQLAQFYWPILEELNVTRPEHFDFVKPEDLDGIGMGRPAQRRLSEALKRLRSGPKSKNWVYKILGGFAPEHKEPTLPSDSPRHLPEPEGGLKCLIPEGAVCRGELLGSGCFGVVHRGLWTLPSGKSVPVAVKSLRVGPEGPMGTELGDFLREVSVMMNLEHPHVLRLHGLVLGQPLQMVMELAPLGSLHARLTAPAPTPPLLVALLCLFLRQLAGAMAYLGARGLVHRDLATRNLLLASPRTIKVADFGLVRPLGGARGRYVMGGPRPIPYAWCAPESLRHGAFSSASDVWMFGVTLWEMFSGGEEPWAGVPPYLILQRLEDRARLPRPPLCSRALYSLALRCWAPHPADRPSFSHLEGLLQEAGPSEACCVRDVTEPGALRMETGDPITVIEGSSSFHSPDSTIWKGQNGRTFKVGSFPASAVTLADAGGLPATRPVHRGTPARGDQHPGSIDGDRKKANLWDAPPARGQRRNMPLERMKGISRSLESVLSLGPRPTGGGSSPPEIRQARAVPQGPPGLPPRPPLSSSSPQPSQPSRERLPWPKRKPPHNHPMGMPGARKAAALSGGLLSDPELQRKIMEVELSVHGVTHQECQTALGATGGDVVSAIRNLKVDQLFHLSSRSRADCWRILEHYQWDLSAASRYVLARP
Description: as §1, §2

[11] = molecular target: T11, AKT2 (Homo sapiens, UniProt P31751); test: Broad kinase panel screen (split-luciferase); type: binding; settings: AKT2, 0.5 uM
T11 construct: purchased Luceome Biotechnologies
Description: as §1, §2

[12] = molecular target: T12, PTK2B/PYK2 (Homo sapiens, UniProt Q14289); test: Broad kinase panel screen (split-luciferase); type: binding; settings: PTK2B/PYK2, 0.5 uM
T12 construct: purchased Luceome Biotechnologies
Description: as §1, §2

[13] = molecular target: T13, FLT1/VEGFR1 (Homo sapiens, UniProt P17948); test: Broad kinase panel screen (split-luciferase); type: binding; settings: FLT1/VEGFR1, 0.5 uM
T13 construct: purchased Luceome Biotechnologies
Description: as §1, §2

[14] = molecular target: T14, MST2 (Homo sapiens, UniProt Q13188); test: Broad kinase panel screen (split-luciferase); type: binding; settings: MST2, 0.5 uM
T14 construct: purchased Luceome Biotechnologies
Description: as §1, §2

[15] = molecular target: T15, PLK4 (Homo sapiens, UniProt O00444); test: Broad kinase panel screen (split-luciferase); type: binding; settings: PLK4, 0.5 uM
T15 construct: purchased Luceome Biotechnologies
T15 sequence (O00444 whole entry): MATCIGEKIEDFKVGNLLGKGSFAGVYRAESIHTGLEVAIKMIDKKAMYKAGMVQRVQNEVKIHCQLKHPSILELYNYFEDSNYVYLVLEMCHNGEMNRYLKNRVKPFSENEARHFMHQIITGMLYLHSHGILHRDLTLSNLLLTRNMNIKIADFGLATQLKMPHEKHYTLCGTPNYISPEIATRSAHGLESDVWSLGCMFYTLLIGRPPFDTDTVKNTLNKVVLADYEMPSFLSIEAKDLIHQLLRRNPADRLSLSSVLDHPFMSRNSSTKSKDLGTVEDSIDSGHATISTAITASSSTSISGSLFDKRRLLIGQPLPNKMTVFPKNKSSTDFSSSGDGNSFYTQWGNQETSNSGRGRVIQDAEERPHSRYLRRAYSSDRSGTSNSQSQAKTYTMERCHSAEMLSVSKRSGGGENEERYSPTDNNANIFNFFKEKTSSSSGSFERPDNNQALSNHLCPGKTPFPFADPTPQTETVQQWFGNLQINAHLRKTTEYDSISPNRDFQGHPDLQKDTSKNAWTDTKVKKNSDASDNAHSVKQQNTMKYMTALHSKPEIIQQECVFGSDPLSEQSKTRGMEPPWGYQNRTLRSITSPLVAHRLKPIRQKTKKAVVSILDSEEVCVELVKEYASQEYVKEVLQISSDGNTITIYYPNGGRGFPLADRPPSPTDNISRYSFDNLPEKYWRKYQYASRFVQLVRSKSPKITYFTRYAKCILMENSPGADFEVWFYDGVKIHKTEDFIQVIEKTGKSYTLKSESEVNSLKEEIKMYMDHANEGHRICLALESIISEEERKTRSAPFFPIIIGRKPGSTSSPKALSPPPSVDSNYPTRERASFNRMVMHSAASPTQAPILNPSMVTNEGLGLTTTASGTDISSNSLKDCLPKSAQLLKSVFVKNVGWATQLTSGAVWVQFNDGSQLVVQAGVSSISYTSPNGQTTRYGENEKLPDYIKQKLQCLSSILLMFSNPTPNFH
Description: as §1, §2

[16] = molecular target: T16, PKA/PRKACA (Homo sapiens, UniProt P17612); test: Broad kinase panel screen (split-luciferase); type: binding
T16 construct: purchased Luceome Biotechnologies
Description: as §1, §2

[17] = molecular target: T17, CLK2 (Homo sapiens, UniProt P49760); test: Broad kinase panel screen (split-luciferase); type: binding; settings: CLK2, 0.5 uM
T17 construct: purchased Luceome Biotechnologies
Description: as §1, §2

[18] = molecular target: T18, AKT1 (Homo sapiens, UniProt P31749); test: Broad kinase panel screen (split-luciferase); type: binding; settings: AKT1, 0.5 uM
T18 construct: purchased Luceome Biotechnologies
Description: as §1, §2

[19] = molecular target: T19, CDK5 (Homo sapiens, UniProt Q00535); test: Broad kinase panel screen (split-luciferase); type: binding; settings: CDK5, 0.5 uM
T19 construct: purchased Luceome Biotechnologies
T19 sequence (Q00535 whole entry): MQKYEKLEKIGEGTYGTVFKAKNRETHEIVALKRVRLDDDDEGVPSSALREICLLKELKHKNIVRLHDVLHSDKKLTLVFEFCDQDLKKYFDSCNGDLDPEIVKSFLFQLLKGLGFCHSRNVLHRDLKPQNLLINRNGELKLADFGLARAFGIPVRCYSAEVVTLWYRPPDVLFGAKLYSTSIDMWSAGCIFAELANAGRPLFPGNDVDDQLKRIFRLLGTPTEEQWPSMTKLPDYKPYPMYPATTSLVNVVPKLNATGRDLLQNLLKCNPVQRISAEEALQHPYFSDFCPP
Description: as §1, §2

[20] = molecular target: T20, MUSK (Homo sapiens, UniProt O15146); test: Broad kinase panel screen (split-luciferase); type: binding
T20 construct: purchased Luceome Biotechnologies
Description: as §1, §2

[21] = molecular target: T21, CAMK2D (Homo sapiens, UniProt Q13557); test: Broad kinase panel screen (split-luciferase); type: binding
T21 construct: purchased Luceome Biotechnologies
T21 sequence (Q13557 whole entry): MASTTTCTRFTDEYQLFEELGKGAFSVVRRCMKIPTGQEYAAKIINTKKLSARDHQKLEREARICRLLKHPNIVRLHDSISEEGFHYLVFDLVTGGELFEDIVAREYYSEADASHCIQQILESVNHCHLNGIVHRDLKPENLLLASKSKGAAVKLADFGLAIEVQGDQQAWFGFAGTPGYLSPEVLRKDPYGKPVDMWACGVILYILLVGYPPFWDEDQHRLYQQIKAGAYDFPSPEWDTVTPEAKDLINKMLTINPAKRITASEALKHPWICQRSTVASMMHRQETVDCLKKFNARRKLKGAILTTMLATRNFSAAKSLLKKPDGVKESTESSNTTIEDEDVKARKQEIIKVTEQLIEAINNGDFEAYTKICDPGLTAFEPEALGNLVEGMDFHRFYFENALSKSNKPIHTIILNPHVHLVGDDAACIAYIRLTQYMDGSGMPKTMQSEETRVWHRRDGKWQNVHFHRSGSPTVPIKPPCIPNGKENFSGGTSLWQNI
Description: as §1, §2

[22] = molecular target: T22, MARK2 (Homo sapiens, UniProt Q7KZI7); test: Broad kinase panel screen (split-luciferase); type: binding; settings: MARK2, 0.5 uM
T22 construct: purchased Luceome Biotechnologies
Description: as §1, §2

[23] = molecular target: T23, YSK1 (Homo sapiens, UniProt O00506); test: Broad kinase panel screen (split-luciferase); type: binding; settings: YSK1, 0.5 uM
T23 construct: purchased Luceome Biotechnologies
Description: as §1, §2

[24] = molecular target: T24, FLT3 (Homo sapiens, UniProt P36888); test: Broad kinase panel screen (split-luciferase); type: binding; settings: FLT3, 0.5 uM
T24 construct: purchased Luceome Biotechnologies
Description: as §1, §2

Compound: CCOc1ccc(-n2nnc3cnc(Nc4cnn(CC)c4)nc32)cc1 [Compound 2, 3-(4-Ethoxyphenyl)-N-(1-ethyl-1H-pyrazol-4-yl)-3H-[1,2,3]triazolo[4,5-d]pyrimidin-5-amine]
- IC50 [1]: 18.6 nM
- remaining activity at 0.5 µM [2]: 96%
- remaining activity at 0.5 µM [3]: 96.2%
- remaining activity at 0.5 µM [4]: 100%
- remaining activity at 0.5 µM [5]: 99.1%
- remaining activity at 0.5 µM [6]: 89.9%
- remaining activity at 0.5 µM [7]: 100%
- remaining activity at 0.5 µM [8]: 100%
- remaining activity at 0.5 µM [9]: 93.1%
- remaining activity at 0.5 µM [10]: 100%
- remaining activity at 0.5 µM [11]: 96.8%
- remaining activity at 0.5 µM [12]: 96%
- remaining activity at 0.5 µM [13]: 51.7%
- remaining activity at 0.5 µM [14]: 100%
- remaining activity at 0.5 µM [15]: 100%
- remaining activity at 0.5 µM [16]: 100%
- remaining activity at 0.5 µM [17]: 93%
- remaining activity at 0.5 µM [18]: 98.4%
- remaining activity at 0.5 µM [19]: 94.4%
- remaining activity at 0.5 µM [20]: 100%
- remaining activity at 0.5 µM [21]: 89.9%
- remaining activity at 0.5 µM [22]: 99.3%
- remaining activity at 0.5 µM [23]: 93.6%
- remaining activity at 0.5 µM [24]: 100%
